Measurements as given in patent US4129721A, “A-40104 antibiotics and process for production thereof” (priority 1977, dated 1978).
In brackets after ≈: the same amount, converted by molar mass.

Columns and labels:
[1] = test system: Bordetella bronchiseptica; test: standard agar-dilution test; format: cell-based
Description: (§1) A-40104 factor A is an especially useful antibacterial agent. The minimal inhibitory concentrations (MIC's) at which A-40104 factor A inhibits selected bacteria, as determined by standard agar-dilution tests, are summarized in Table III.

[2] = test system: Staphylococcus aureus 3055; test: standard agar-dilution test; format: cell-based
Description: as §1

Streptococcus faecalis = test: standard agar-dilution test; format: cell-based; details: Enterococcus faecalis
Description: as §1

[3] = test system: Staphylococcus aureus 3074; test: standard agar-dilution test; format: cell-based
Description: as §1

[4] = test system: Hemophilus influenzae Brun; test: gradient-plate agar-dilution method; format: cell-based; details: Haemophilus influenzae
[5] = test system: Neisseria gonorrhea Sand.; test: gradient-plate agar-dilution method; format: cell-based
[6] = test system: Hemophilus influenzae 259; test: gradient-plate agar-dilution method; format: cell-based; details: Haemophilus influenzae
[7] = test system: Bacteroides fragilis 1877; test: standard agar-dilution test, anaerobic bacteria; format: cell-based; details: Bacteroides fragilis, 1877, 2 h
Bacteroides fragilis 111 = test: standard agar-dilution test, anaerobic bacteria; format: cell-based; details: Bacteroides fragilis, 111, 2 h
Bacteroides vulgatis = test: standard agar-dilution test, anaerobic bacteria; format: cell-based; details: 2 h
[8] = test system: Peptostreptococcus intermedius; test: standard agar-dilution test, anaerobic bacteria; format: cell-based; details: 2 h
electrometric titration = format: physicochemical; details: 66 percent aqueous dimethylformamide
[9] = test system: pathogenic organisms, particularly gram-positive bacteria; test: antibacterial activity (general statement); format: cell-based
powdery mildew = powdery mildew control on bean and barley plants; format: in vivo
Description: The A-40104 antibiotics are also active against plant pathogens. […] The systemic activity of these antibiotics is especially advantageous in the control of plant pathogens or Spiroplasmas.

Streptococcus sp. 9960 = test: standard disc-plate assay; format: cell-based; details: Group D, disc diameter 6.35 mm, read-out: Zone Diameters
Experimental: (§2) In one important aspect of this activity, the A-40104 antibiotics inhibit the growth of organisms which are resistant to other antibiotics. In Table IV the standard disc-plate-assay activity of A-40104 factors A and B against representative organisms is summarized. Activity is measured as the diameter (in mm) of the observed zone of inhibition; the diameter of disc used in each case was 6.35 mm.

Streptococcus pyogenes [10] = test: standard disc-plate assay; format: cell-based; details: Group A, disc diameter 6.35 mm, read-out: Zone Diameters
Experimental: as §2

Peptococcus prevoti = test: standard agar-dilution test, anaerobic bacteria; format: cell-based; details: read after 2 hours incubation
[11] = test system: Hemophilus influenzae 260; test: gradient-plate agar-dilution method; format: cell-based; details: Haemophilus influenzae
Bacteroides corrodens = test: standard agar-dilution test, anaerobic bacteria; format: cell-based; details: Eikenella corrodens, 2 h
[12] = test system: Staphylococcus aureus 3055; test: experimental bacterial infection in mice; format: in vivo; details: Staphylococcus aureus, 3055, sc, sc, two doses, challenge 1,260 × LD50 (ip), read-out: ED50 × 2
Streptococcus pyogenes [13] = test: gradient-plate agar-dilution method; format: cell-based
[14] = test system: Bacteroides melaninogenicus 1856/28; test: standard agar-dilution test, anaerobic bacteria; format: cell-based; details: Prevotella intermedia, read after 2 hours incubation
Description: (§3) Table VIII summarizes the activity of A-40104 factor A, as determined by the standard agar-dilution test.
(§4) *MIC determined by the agar-dilution method. Endpoints were read after 2

[15] = test system: Peptostreptococcus anaerobius; test: standard agar-dilution test, anaerobic bacteria; format: cell-based; details: 2 h
Description: as §3, §4

Eubacterium aerofacines = test: standard agar-dilution test, anaerobic bacteria; format: cell-based; details: 2 h
Description: as §3, §4

[16] = test system: Bacteroides thetaiotaomicron; test: standard agar-dilution test, anaerobic bacteria; format: cell-based; details: 2 h
Description: as §3, §4

Clostridium septicum = test: standard agar-dilution test, anaerobic bacteria; format: cell-based; details: 2 h
Description: as §3, §4

Actinomyces israelii = test: standard agar-dilution test, anaerobic bacteria; format: cell-based; details: read after 2 hours incubation
Description: as §3, §4

[17] = test system: Streptococcus pyogenes C203; test: experimental bacterial infection in mice; format: in vivo; details: sc, two doses, challenge 195 × LD50 (ip), read-out: ED50 × 2
bacteria of Table V = test: gradient-plate agar-dilution method, series of in vitro tests; format: cell-based
[18] = test system: Hemophilus influenzae Dick.; test: gradient-plate agar-dilution method; format: cell-based; details: Haemophilus influenzae
Fusobacterium symbiosum = test: standard agar-dilution test, anaerobic bacteria; format: cell-based; details: 2 h
[19] = test system: Pasteurella multocida (bovine); test: standard in vitro tests, Pasteurella; format: cell-based
Description: (§5) Another veterinary aspect of this invention is the activity of the A-40104 antibiotics against Pasteurella species. P. multocida, for example, is a causative agent of respiratory infection in cattle, poultry, and swine. P. hemolytica is a major cause of respiratory disease in cattle. The activity of A-40104 factor A and its dihydro derivative against Pasteurella, as determined by standard in vitro tests, is summarized in Table X.

Pasteurella hemolytica = test: standard in vitro tests, Pasteurella; format: cell-based
Description: as §5

[20] = test system: experimental bacterial infections; test: experimental bacterial infections in mice (general statement); format: in vivo
Experimental: When two doses of these compounds were administered to mice in illustrative infections, the activity observed was measured as an ED50 value [effective dose in mg./kg. to protect 50 percent of the test animals; see Warren Wick, et al., J. Bacteriol. 81, 233-235 (1961)].

[21] = test system: Bacteroides fragilis 1936B; test: standard agar-dilution test, anaerobic bacteria; format: cell-based; details: 2 h
Neisseria gonorrhea = test: gradient-plate agar-dilution method; format: cell-based
[22] = test system: Fusobacterium necrophorum; test: standard agar-dilution test, anaerobic bacteria; format: cell-based; details: 2 h

**Q.** Which MIC [1] does the source give for `C=CC1(C)CC(OC(=O)CO[C@@H]2OC[C@@H](O)[C@H](O)[C@H]2O)C2(C)C(C)CCC3(CCC(=O)C32)C(C)C1O` (stereo partly drawn) [A-40104 factor A, β,D-xylopyranosyl acetal derivative of pleuromutilin] here?
**A.** < 0.5 mg/L

**Q.** What about the MIC [2] of the same compound?
**A.** < 0.5 mg/L

**Q.** And the MIC (Streptococcus faecalis)?
**A.** < 0.5 mg/L

**Q.** What about the MIC [3] of the same compound?
**A.** < 0.5 mg/L

**Q.** What about the MIC [4] of the same compound?
**A.** 2 mg/L (≈ 3.92 µM)

**Q.** And the MIC [5]?
**A.** 0.07 mg/L (≈ 0.137 µM)

**Q.** What about the MIC [6] of the same compound?
**A.** 0.7 mg/L (≈ 1.37 µM)

**Q.** And the MIC [7]?
**A.** 8 mg/L (≈ 15.7 µM)

**Q.** And the MIC (Bacteroides fragilis 111)?
**A.** 8 mg/L (≈ 15.7 µM)

**Q.** What about the MIC (Bacteroides vulgatis) of the same compound?
**A.** 4 mg/L (≈ 7.83 µM)

**Q.** And the MIC [8]?
**A.** ≤ 0.5 mg/L

**Q.** What about the titratable groups (electrometric titration) of the same compound?
**A.** no titratable groups are present

**Q.** What about the “growth inhibition of pathogenic organisms” value [9] of the same compound?
**A.** inhibit the growth of certain pathogenic organisms, particularly gram-positive bacteria

**Q.** And the solubility in alcohols (solubility; alcohols such as methanol and ethanol)?
**A.** soluble in alcohols such as methanol and ethanol

**Q.** And the solubility in chloroform (solubility; chloroform)?
**A.** partially soluble in chloroform

**Q.** And the solubility in water (solubility; water)?
**A.** insoluble in water

**Q.** And the “control of powdery mildew” value (powdery mildew; bean and barley plants, soil drench, 100 ppm)?
**A.** control of powdery mildew is obtained

**Q.** What about the “activity against powdery mildew” value (powdery mildew; foliar spray or soil drench) of the same compound?
**A.** active against powdery mildew

**Q.** What about the zone of inhibition at 10 µg/disc (Streptococcus sp. 9960; 10 mcg/disc) of the same compound?
**A.** 0 mm

**Q.** What about the zone of inhibition at 100 µg/disc (Streptococcus sp. 9960; 100 mcg/disc) of the same compound?
**A.** 8.7 mm

**Q.** What about the zone of inhibition at 10 µg/disc (Streptococcus pyogenes [10]; 10 mcg/disc) of the same compound?
**A.** 21 mm

**Q.** What about the zone of inhibition at 100 µg/disc (Streptococcus pyogenes [10]; 100 mcg/disc) of the same compound?
**A.** 27 mm

**Q.** What about the MIC (Peptococcus prevoti) of the same compound?
**A.** ≤ 0.5 mg/L

**Q.** What about the MIC [11] of the same compound?
**A.** 0.7 mg/L (≈ 1.37 µM)

**Q.** And the MIC (Bacteroides corrodens)?
**A.** 8 mg/L (≈ 15.7 µM)

**Q.** What about the ED50 [12] of the same compound?
**A.** 15.7 mg/kg

**Q.** What about the MIC (Streptococcus pyogenes [13]) of the same compound?
**A.** < 0.01 mg/L

**Q.** And the MIC [14]?
**A.** 4 mg/L (≈ 7.83 µM)

**Q.** And the MIC [15]?
**A.** 2 mg/L (≈ 3.92 µM)

**Q.** What about the MIC (Eubacterium aerofacines) of the same compound?
**A.** 16 mg/L (≈ 31.3 µM)

**Q.** What about the MIC [16] of the same compound?
**A.** 2 mg/L (≈ 3.92 µM)

**Q.** And the MIC (Clostridium septicum)?
**A.** 8 mg/L (≈ 15.7 µM)

**Q.** What about the MIC (Actinomyces israelii) of the same compound?
**A.** ≤ 0.5 mg/L

**Q.** What about the ED50 [17] of the same compound?
**A.** 3.6 mg/kg

**Q.** And the comparison with ampicillin (bacteria of Table V)?
**A.** compares favorably with ampicillin

**Q.** And the MIC [18]?
**A.** 2 mg/L (≈ 3.92 µM)

**Q.** What about the MIC (Fusobacterium symbiosum) of the same compound?
**A.** 4 mg/L (≈ 7.83 µM)

**Q.** And the MIC [19]?
**A.** 6.25 mg/L (≈ 12.2 µM)

**Q.** What about the MIC (Pasteurella hemolytica) of the same compound?
**A.** 25 mg/L (≈ 49 µM)

**Q.** And the “in vivo antimicrobial activity” value [20]?
**A.** have shown in vivo antimicrobial activity

**Q.** What about the MIC [21] of the same compound?
**A.** 8 mg/L (≈ 15.7 µM)

**Q.** And the MIC (Neisseria gonorrhea)?
**A.** 0.5 mg/L (≈ 0.979 µM)

**Q.** What about the MIC [22] of the same compound?
**A.** ≤ 0.5 mg/L
